Source: patent US7211116B2, “Hair dye composition” (Kao Corporation, priority 2001, dated 2007)

Test: Measurement of hydrogen peroxide remaining ratio in a virtual hair bleach composition (Cu, ammonia, H2O2; iodometric titration)
Details: 20.0 mg compound, aqueous Cu solution, stirred 10 minutes at 30° C.
Protocol: The first requirement is a remaining ratio of hydrogen peroxide. The remaining ratio of hydrogen peroxide is determined by measuring the remaining amount of hydrogen peroxide in a virtual hair bleach composition after a predetermined time. The remaining ratio exceeding a predetermined value allows existence of hydrogen peroxide which can be used for hair bleaching or dyeing and promotes the hair bleaching action. The remaining ratio below a predetermined value, on the other hand, prevents excessive stabilization of hydrogen peroxide, whereby the oxidizing agent acts to emit adequate —O2H (perhydroxy anion).
The hydrogen peroxide remaining ratio in the present invention is measured in the following manner. Measurement of hydrogen peroxide remaining ratio %: In a 50 mL screw tube are charged 20.0 mg of Compound (A) and 5.98 g of deionized water to dissolve the former in the latter. […] The point when a violet color (bluish violet to reddish violet) disappears completely is designated as a terminal point and hydrogen peroxide % is determined in accordance with the below-described equation. The amount of hydrogen peroxide in an aqueous solution obtained by diluting 10.00 of 2% aqueous hydrogen peroxide with 10.00 g of deionized water is also measured and the hydrogen peroxide amount at this time is taken as a hydrogen peroxide remaining ratio of 100%.

NCCCN [1,3-Propanediamine]
Hydrogen peroxide remaining ratio: 19.3%
